Read-outs that look alike come from different tables or passages of the source.
Assays:
[1] = test system: Aberrant crypt focus (ACF), polyps and tumours; experiment: Colon carcinogenesis in the mouse induced by azoxymethane; assay type: in vivo; details: i.p. three times per week for three months; FIG. 5 c), FIG. 6 c)
From the text: Aberrant crypt focus (ACF), polyps and tumours were induced in the mouse by the carcinogenic substance azoxymethane. The phytocannabinoids were given (i.p.) to the mice three times per week for a period of three months. The COX-2 inhibitor celecoxib was used as a positive control.

[2] = test system: human glioma xenograft tumours; experiment: Human glioma xenograft tumour volume; assay type: in vivo; set-up: unit not given here
Procedure: The phytocannabinoids were also tested with the TMZ as is detailed in Table 13.2 below.

[3] = test system: subcutaneously implanted U87 human glioma cells; details: s.c., 0.5 mg/mouse; cited from earlier work
GPR55 = molecular target: T1, GPR55 (Homo sapiens, UniProt Q9Y2T6); experiment: ERK Alphascreen assay using GPR55-HEK cells; assay type: cell-based
T1 construct: expressed in transfected cells; host or cells: HEK cells (GPR55-HEK)
T1 sequence (Q9Y2T6 whole entry, species assumed): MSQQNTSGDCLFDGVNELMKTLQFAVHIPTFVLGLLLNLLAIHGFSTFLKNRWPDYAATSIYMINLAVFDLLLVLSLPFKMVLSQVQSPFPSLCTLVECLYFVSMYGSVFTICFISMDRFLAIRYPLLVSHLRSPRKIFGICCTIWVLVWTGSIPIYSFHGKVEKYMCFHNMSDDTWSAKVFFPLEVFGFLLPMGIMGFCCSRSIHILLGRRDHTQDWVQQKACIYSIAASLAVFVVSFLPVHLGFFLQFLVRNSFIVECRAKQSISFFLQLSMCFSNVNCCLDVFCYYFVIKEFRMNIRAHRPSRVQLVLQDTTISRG
From the text: An ERK Alphascreen assay was undertaken using GPR55-HEK cells.

LNCaP = experiment: Cell vitality (MTT assay), LNCaP; assay type: cell-based; details: Homo sapiens, read-out: IC50 on cell vitality
Procedure: (§1) Cells were seeded in presence of FBS in 6 wells multiwell with a density of 8×10^4 cells/well (DU-145) or 1×10^5 cells/well (LNCaP). After 7 hours, cells were starved of dihydrotestosterone (DHT) for 15 hours and treated with increased concentrations of compounds for 24 or 48 hours (absence of serum was maintained during the treatments). Cell viability was assessed by MTT staining.
(§2) Phytocannabinoid BDS and their respective isolated phytocannabinoids were tested in both the hormone-insensitive (DU-145) prostate cancer cells and hormone-sensitive (LNCaP) prostate cancer cells. Three different phytocannabinoids were chosen for this experiment: CBG BDS and isolated compound, CBC BDS and isolated compound and CBD BDS and isolated compound.
(§3) The experiment was repeated in the hormone-insensitive (DU-145) prostate cancer cells and hormone-sensitive (LNCaP) prostate cancer cells that had not been starved of DHT. Here just the CBG BDS and isolated CBG are illustrated in Table 7.2 below.

[4] = test system: MDA-MB-231 breast cancer cell line; experiment: Cell viability of breast cancer cells (Alamar blue assay); assay type: cell-based; details: Homo sapiens, 72 hours
Procedure: Cells were seeded in presence of FBS in 6 wells multiwell and treated with increased concentrations of compounds for 72 hours. Cell viability was assessed by Alamar blue staining.
Isolated phytocannabinoids were tested on the MDA-MB-231 breast cancer cell line in order to determine whether phytocannabinoids were effective in other types of cancer other than prostate cancer. The different isolated phytocannabinoids chosen for this experiment were: CBGA, CBDA, CBDV, CBD, THCV and THC.

Glioma cells = experiment: Human glioma cell vitality (MTT assay); assay type: cell-based; details: read-out: IC50 on glioma cell vitality
Procedure: Cells were seeded in presence of FBS in 6 wells multiwell with a density of 8×10^4 cells/well. Glioma cells were treated with increased concentrations of compounds and cell viability was assessed by MTT staining.
CBD BDS and isolated CBD, CBG and CBDV were tested.

DU-145 = experiment: Cell vitality (MTT assay), DU-145; assay type: cell-based; details: Homo sapiens, read-out: IC50 on cell vitality
Procedure: as §1, §2, §3

U87 glioma cells = experiment: Viability of U87 glioma cells (MTT assay), THC, CBD, TMZ alone and combined; assay type: cell-based, human
[5] = test system: recurrent glioblastoma multiforme; details: nine patients, THC intra-tumourally; 95% confidence interval: 15-33; cited from earlier work

Row | SMILES | numbers of tumours per animal [1] | Tumour volume (increase from day 1) ([2]; dose level 3.7 mg/kg (each)) | Tumour volume (increase from day 1) ([2]; dose level 7.5 mg/kg (each)) | Tumour volume (increase from day 1) ([2]; dose level 15.0 mg/kg) | growth of subcutaneously implanted U87 human glioma cells [3] | Effect at GPR55 (GPR55) | IC50 (LNCaP; 24 h) [µM] | IC50 (LNCaP; 48 h) [µM] | IC50 [4] [µM] | IC50 (Glioma cells) [µM] | IC50 (DU-145; DU-145, 24 h) [µM] | IC50 (DU-145; DU-145, 48 h) [µM] | Cell Viability (%) (U87 glioma cells; cannabinoid 1 μM (each), Table 12.2) | Cell Viability (%) (U87 glioma cells; dose level 0.7 μM (each)) | Cell Viability (%) (U87 glioma cells; dose level 0.9 μM (each)) | Cell Viability (%) (U87 glioma cells; dose level 1.2 μM (each)) | Median survival from the beginning of cannabinoid administration [5] [weeks]
1 | C=C(C)[C@@H]1CCC(C)=C[C@H]1c1c(O)cc(CCCCC)cc1O [CBD, Cannabidiol] | significantly reduced the numbers of tumours per animal | 9.1 | 8.9 | 7.6 | significantly inhibited the growth | Antagonist | 5.3 | 5.6 | 5 | 8.92 | 5.5 | 4.9 |  |  |  |  | 
2 | CCCCCc1cc(O)c2c(c1)OC(C)(C)[C@@H]1CCC(C)=C[C@@H]21 [THC, Tetrahydrocannabinol] |  | 8.7 | 8.5 | 5.8 |  |  |  |  | > 10 |  |  |  | 115 | 100 | 92 | 80 | 24

— patent US8790719B2, “Phytocannabinoids in the treatment of cancer” (GW Pharma Limited, priority 2010, dated 2014)
